The values below come from US8552029B2, “Quinoline derivatives and uses of the same” (National Taipei University of Technology, priority 2011, dated 2013).

The structures appear in SMILES notation.

For orientation: melting point means the temperature, or range, at which the solid turns liquid.

For the molecule `Nc1ccc(-n2cc(C(=O)O)c(=O)c3cc(F)c(N/N=C/c4ccccc4)cc32)cc1` [Compound 7, 1-(4-aminophenyl)-7-(2-benzylidenehydrazinyl)-6-fluoro-4-oxo-1,4-dihydroquinoline-3-carboxylic acid], the melting point was in the range of 314 to 316 °C.
In the case of `Nc1ccc(-n2cc(C(=O)O)c(=O)c3cc(F)c(N/N=C/c4ccc(F)cc4)cc32)cc1` [Compound 8, 1-(4-aminophenyl)-6-fluoro-7-[2-(4-fluorobenzylidene)hydrazinyl]-4-oxo-1,4-dihydroquinoline-3-carboxylic acid], the melting point is 308 to 310 °C.
The result for `Nc1ccc(-n2cc(C(=O)O)c(=O)c3cc(F)c(N/N=C/c4ccncc4)cc32)c(F)c1` [Compound 11, 1-(4-amino-2-fluorophenyl)-6-fluoro-4-oxo-7-[2-(pyridin-4-ylmethylene)hydrazinyl]-1,4-dihydroquinoline-3-carboxylic acid] reads 176 to 178 °C; that for `COc1ccc(/C=N/Nc2cc3c(cc2F)c(=O)c(C(=O)O)cn3-c2ccc(N)cc2)cc1` [Compound 9, 1-(4-aminophenyl)-6-fluoro-7-(2-(4-methoxybenzylidene)hydrazinyl)-4-oxo-1,4-dihydroquinoline-3-carboxylic acid], 307 to 309 °C; that for `COc1ccc(/C=N/Nc2cc3c(cc2F)c(=O)c(C(=O)O)cn3-c2ccc(N)cc2F)cc1` [Compound 10, 1-(4-amino-2-fluorophenyl)-6-fluoro-7-[2-(4-methoxybenzylidene)hydrazinyl]-4-oxo-1,4-dihydroquinoline-3-carboxylic acid], 321 to 322 °C.
